From patent US12023318B2, “Therapy for Inflammatory Linear Verrucous Epidermal Nevus (ILVEN)” (UCL Business Ltd, priority 2018, dated 2024)

Tested on: Inflammatory Linear Verrucous Epidermal Nevus (ILVEN)
Test: Topical cholesterol/simvastatin treatment of patients with ILVEN
Format: in vivo, human
Conditions: patient 9, localised ILVEN left arm; tried after no response to cholesterol/simvastatin
Source text: Fourteen patients with ILVEN were recruited. Photographs were taken of all cases as a baseline. DNA was extracted directly from lymphocytes and from affected skin biopsy without culture, using standard methods. Where possible a second skin biopsy of affected skin was also obtained for primary keratinocyte culture and immortalization with HPV to establish a stable cell line. In a minority of cases a skin biopsy of normal skin was also taken for keratinocyte culture and immortalization. Histopathology of affected skin was obtained in all cases. Thirteen of the fourteen patients were treated with […]/2% simvastatin in Unguentum Merck, applied topically twice a day for a minimum period of three months in the first instance, and only applied to one designated area of affected skin, using the rest of the skin as an internal control. If there was no response in this time the treatment was stopped. Where there was a positive response the treatment has been continued, and extended gradually to different body areas.

In the case of `CC(C)CCC[C@@H](C)[C@H]1CC[C@H]2[C@@H]3CC=C4C[C@@H](O)CC[C@]4(C)[C@H]3CC[C@]12C` [cholesterol, Cholesterol], the “Response to cholesterol only” value is reported as “no”.
